Experimental data published in PubChem BioAssay (NCI).
“And” between values parts separate entries of the source, which are not always exact repeats. Equal values may be shown once.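 Grown in 96-well plates, cells were treated for 48 hours with each compound at five concentrations. Insufficient inhibition: endpoint recorded as highest concentration tested. Abbreviation: GI50, concentration required for 50% inhibition of growth. TGI: total growth inhibition.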

Experiments:
Test in all cases: DTP human tumour cell line panel, 48 h
786-0 renal = system: 786-0 renal
HCT-15 colon = system: HCT-15 colon
HOP-62 NSCLC = system: HOP-62 NSCLC
IGROV1 ovarian = system: IGROV1 ovarian
K-562 leukemia = system: K-562 leukemia
MDA-MB-231 breast = system: MDA-MB-231 breast
NCI-H522 lung = system: NCI-H522 lung
OVCAR-3 ovarian = system: OVCAR-3 ovarian
SF-539 CNS = system: SF-539 CNS
SW-620 colon = system: SW-620 colon

Row | Compound | GI50 (786-0 renal) | TGI (786-0 renal) | GI50 (HCT-15 colon) | TGI (HCT-15 colon) | GI50 (HOP-62 NSCLC) | TGI (HOP-62 NSCLC) | GI50 (IGROV1 ovarian) | TGI (IGROV1 ovarian) | GI50 (K-562 leukemia) | TGI (K-562 leukemia) | GI50 (MDA-MB-231 breast) | TGI (MDA-MB-231 breast) | GI50 (NCI-H522 lung) | TGI (NCI-H522 lung) | GI50 (OVCAR-3 ovarian) | TGI (OVCAR-3 ovarian) | GI50 (SF-539 CNS) | TGI (SF-539 CNS) | GI50 (SW-620 colon) | TGI (SW-620 colon)
1 | Cc1[nH]c(C(=O)Nc2ccccc2OC2CCNCC2)c(Cl)c1Cl | 817 nM | 1570 nM | 912 nM | 1880 nM | 812 nM | 1630 nM | 856 nM | 1730 nM | 1660 nM | 5260 nM | 895 nM | 1760 nM | 866 nM | 1740 nM | 931 nM | 1680 nM | 856 nM | 1560 nM | 990 nM | 2390 nM
2 | NC1CCC(Nc2nc(NCc3cc(Cl)ccc3O)c3ncn(C4CCCC4)c3n2)CC1 (configuration not stated) | 211 nM | 624 nM | 259 nM | 966 nM | 245 nM | 813 nM | 204 nM | 771 nM | 175 nM | 461 nM | 186 nM | 759 nM | 152 nM | 335 nM | 133 nM | 640 nM | 166 nM | 341 nM | 150 nM | 922 nM
3 | c1cc(CSSCc2ccncc2)ccn1 |  | > 100000 nM |  | > 100000 nM |  | > 100000 nM |  | > 100000 nM |  | > 100000 nM |  | > 100000 nM |  | 60200 nM |  | > 100000 nM |  | 50200 nM |  | > 100000 nM
4 | COc1cc2nc(-c3ccc(Cl)cc3)cc(OCCCN3CCCC3)c2cc1OC | 2780 nM | 12100 nM | 567 nM | 11500 nM | 1380 nM | 10600 nM | 881 nM | 11800 nM | 1060 nM | 4680 nM | 907 nM | 4080 nM | 2360 nM | 8890 nM | 2710 nM | 13100 nM | 2440 nM | 8070 nM | 3120 nM | 13100 nM
5 | N#CC1(Nc2ccc(-c3ccc(NC4(C#N)CCCC4)cc3)cc2)CCCC1 |  | > 100000 nM |  | > 100000 nM |  | > 100000 nM |  | > 100000 nM |  | > 100000 nM |  | > 100000 nM |  | > 100000 nM |  | > 100000 nM |  | 78200 nM |  | > 100000 nM
6 | CSc1ccc2c(c1)N(CCC1CCCCN1C)c1ccccc1S2 (configuration not stated) | 11700 nM and 4920 nM | 25700 nM and 19400 nM | 5110 nM and 4010 nM | 17500 nM and 14600 nM | 9080 nM and 9590 nM | 24000 nM and 25900 nM | 5890 nM | 20100 nM | 2130 nM | 4400 nM | 2080 nM and 2400 nM | 5990 nM and 6110 nM | 6290 nM | 21800 nM | 10700 nM and 4280 nM | 23700 nM and 21700 nM | 14100 nM and 5630 nM | 28200 nM and 18200 nM | 10800 nM and 2520 nM | 24600 nM and 7230 nM
7 | C=C1COC(O)(C2OCOC(C3CC(=O)NC(=O)C3)C2O)C1C (configuration not stated) | 3.62 nM | 53.2 nM | 3.63 nM and 12.7 nM |  | 2.77 nM | 35.7 nM and 38.2 nM | 3.83 nM and 16.6 nM | 44.2 nM and 77.3 nM | 2.41 nM | 41.1 nM |  | 32.8 nM | 2.01 nM | 6.84 nM and 5.93 nM and 13.7 nM |  | 46 nM | 1.65 nM | 6.4 nM and 6.02 nM | 2.88 nM | 42 nM and 142 nM
